Measured values published in patent US9456995B2, “Methods for inhibition of BNIP3 and prevention and treatment of ischemia reperfusion injury by tetra-O-methyl nordihydroguaiaretic acid” (THE JOHNS HOPKINS UNIVERSITY, priority 2012, dated 2016).

Legend:
[1] = system: mitochondrial permeability transition pore (mPTP); test: Mitochondrial permeability transition pore (mPTP) openings by confocal microscopy in HL-1 cells; type: cell-based, mouse; details: M4N at 5-20 μM, hypoxia 6 hours then normoxia 8 hours, data not shown
Protocol: Measurement of mitochondrial permeability transition pore (mPTP) openings. The mPTP was measured by Image-iT LIVE Mitochondria Transition Pore Assay Kit (Molecular Probes, Eugene Oreg.). The cells were first washed with Hank's Balanced Salt Solution (HBSS) with sodium bicarbonate, calcium, and magnesium that also included HEPES (10 mM), L-glutamine (2 mM) and succinate (100 μM) to support healthy mitochondrial function (modified HBSS). The cells were then labeled with calcein-AM (1.0 μM) and MitoTracker Red CMSRos dye ([…]) in modified HBSS with […] CoCl2 for 15 minutes. After the medium was changed to the normal HL-1 culture medium, the cells were treated with M4N at various concentrations (0, 5, 10, 20, 40, and 80 μM). The cells were incubated under hypoxia for 6 hours, followed with under normoxia for 8 hours. After the cells were washed with modified HBSS, they were examined by B29/Zeiss LSM 510 META laser confocal microscope (Carl Zeiss, Jena, Germany) for calcein at FITC settings and for MitoTracker at rhodamine settings.

BNIP3 [2] = test: BNIP3 expression in human cancer cells (LNCaP, PC3, MCF-7, HepG2); type: cell-based
BNIP3 [3] = test: BNIP3 expression by western blotting in HL-1 cells under hypoxia; type: cell-based, mouse; details: M4N at 10-40 μM; hypoxia for 6 hours then normoxia for 18 hours; FIG. 3
Protocol: Cell Culture. HL-1 mouse heart cell line was a kind gift from Dr. Claycomb (LSU Health Science Centers, New Orleans La.) (Proc. Natl. Acad. Sci. U.S.A., 95: 2979-84 (1998)). HL-1 cells were cultured in Claycomb medium (Sigma, Saint Louis, Mo.) supplemented with FBS (10%), Norepinephrine (0.1 mM), L-Glutamine (2 mM), penicillin (100 units/ml) and streptomycin (100 μg/ml). Drugs were dissolved in dimethyl sulfoxide at the final concentrations in the medium less than 0.1%. When the cells were indicated to be cultured under hypoxic conditions, the cells were incubated at the oxygen concentration of 0.5% in the hypoxic chamber (BioSpherix Ltd, Lacona, N.Y.). Western blotting. After cells had been grown in […] flasks and treated with reagents, the cells were washed with PBS (−) three times and suspended in RIPA buffer (150 mM NaCl, 50 mM Tris-HCl (pH 8.0), 0.1% SDS, 1% NP40, and 0.5% deoxycholate) supplemented with protease inhibitor cocktail (Calbiochem, San Diego, Calif.). The sample volumes were adjusted by the total protein amount. Protein assay was performed by Bio-Rad Protein Assay (Bio-Rad Laboratories, Inc. Hercules, Calif.). […] The signals were detected by western blot chemiluminescence reagent plus (New England Nuclear Life Science Products, Boston, Mass.). […]

[4] = numerous clinical trials as an anticancer drug; cited from earlier work
HL-1 mouse heart cells [5] = test: UCN-01-induced cell death in HL-1 cells, Trypan blue exclusion assay; type: cell-based; details: M4N around 20 μM; UCN-01 (0.2 μM) for 24 hours; FIG. 4
Protocol: FIG. 4 depicts the effect of M4N on cell death induced by UCN-01 treatment in HL-1 mouse heart cells. The cells were treated with M4N followed with UCN-01 (0.2 μM) treatment for 24 hours. The cell death was measured with Trypan Blue exclusion assay. The asterisk indicates a statistically significant difference by t-test at the error rate of less than 2%. For the Trypan blue exclusion assay, the cells were washed with PBS (−) once and resuspended in PBS (−) again. One part of the resuspended cell solution was mixed with one part of 0.4% Trypan blue solution (Sigma). In about 5 to 15 minutes the numbers of both the cells without staining and the cells with staining were counted. The percentages of the number of the cells with staining to the total cell number (which equals to the number of the cells with staining and that of the cells without staining) were calculated. Effect of M4N on UCN-01-inducing cell death. Next, the effect of M4N on the cell death induced by UCN-01, an anticancer drug, in HL-1 cells (FIG. 4) was examined.

HL-1 mouse heart cells [6] = test: TUNEL assay of cell death induced by hypoxia in HL-1 cells; type: cell-based; details: M4N at 5-20 μM; 6 hour hypoxia (0.5% oxygen) followed with 18 hour normoxia; FIG. 1
Protocol: Cell Culture. HL-1 mouse heart cell line was a kind gift from Dr. Claycomb (LSU Health Science Centers, New Orleans La.) (Proc. Natl. Acad. Sci. U.S.A., 95: 2979-84 (1998)). HL-1 cells were cultured in Claycomb medium (Sigma, Saint Louis, Mo.) supplemented with FBS (10%), Norepinephrine (0.1 mM), L-Glutamine (2 mM), penicillin (100 units/ml) and streptomycin (100 μg/ml). Drugs were dissolved in dimethyl sulfoxide at the final concentrations in the medium less than 0.1%. When the cells were indicated to be cultured under hypoxic conditions, the cells were incubated at the oxygen concentration of 0.5% in the hypoxic chamber (BioSpherix Ltd, Lacona, N.Y.). Cell death assay. Terminal deoxynucleotidyl transferase dUTP nick end labeling (TUNEL) assay was conducted by using TUNEL apoptosis detection kits (Upstate, Temecula, Calif.), with some modifications. The cells were cultured in 12-well microwell culture dishes (Corning Inc., Corning, N.Y.). After the treatment, both the cells floating in the tissue culture medium and those attached to the bottoms of wells were collected together into plastic tubes. […] For the hypoxia treatment the cells were cultured under 0.5% oxygen concentration in a hypoxic chamber for 6 hours and returned the cells back to normoxic condition in a normal culture chamber, and then cell death was measured 18 hours later. […]

HL-1 mouse heart cells [7] = test: Trypan blue exclusion assay of cell death under hypoxia or normoxia in HL-1 cells; type: cell-based; details: M4N at 20 μM, FIG. 2
Protocol: Cell Culture. HL-1 mouse heart cell line was a kind gift from Dr. Claycomb (LSU Health Science Centers, New Orleans La.) (Proc. Natl. Acad. Sci. U.S.A., 95: 2979-84 (1998)). HL-1 cells were cultured in Claycomb medium (Sigma, Saint Louis, Mo.) supplemented with FBS (10%), Norepinephrine (0.1 mM), L-Glutamine (2 mM), penicillin (100 units/ml) and streptomycin (100 μg/ml). Drugs were dissolved in dimethyl sulfoxide at the final concentrations in the medium less than 0.1%. When the cells were indicated to be cultured under hypoxic conditions, the cells were incubated at the oxygen concentration of 0.5% in the hypoxic chamber (BioSpherix Ltd, Lacona, N.Y.). For the Trypan blue exclusion assay, the cells were washed with PBS (−) once and resuspended in PBS (−) again. […] In about 5 to 15 minutes the numbers of both the cells without staining and the cells with staining were counted. The percentages of the number of the cells with staining to the total cell number (which equals to the number of the cells with staining and that of the cells without staining) were calculated. […] For the hypoxia treatment the cells were cultured under 0.5% oxygen concentration in a hypoxic chamber for 6 hours and returned the cells back to normoxic condition in a normal culture chamber, and then cell death was measured 18 hours later. […]

LNCAP cells = test: Mitochondrial metabolism and membrane potential in LNCaP cells; type: cell-based, human; details: data not shown

COc1ccc(C[C@@H](C)[C@@H](C)Cc2ccc(OC)c(OC)c2)cc1OC [M4N, tetra-o-methyl nordihydroguaiaretic acid]
mPTP openings induced by hypoxia [1]: suppressed mPTP openings induced by hypoxia | BNIP3 expression at the transcription level (BNIP3 [2]; LNCaP human prostate cancer cells, internal data not shown): blocks BNIP3 expression | expression of BNIP3 in various cancer cells (BNIP3 [2]; LNCaP, PC3, MCF-7, HepG2 cells, previously found): reduced the expression of BNIP3 | BNIP3 expression (western blotting) (BNIP3 [3]): suppressed | toxicity and safety in clinical trials [4]: very nontoxic and safe drug | UCN-01-mediated cell death, Trypan blue exclusion assay (HL-1 mouse heart cells [5]): reduced UCN-01-mediated cell death | TUNEL-positive cell death induced by hypoxia (HL-1 mouse heart cells [6]): reduced the cell death induced by hypoxia | cell death induced by hypoxia, Trypan blue exclusion assay (HL-1 mouse heart cells [7]; either 6 hour hypoxia with additional 18 hour normoxia or 24 hour hypoxia): reduced the cell death induced by hypoxia | cell death under normoxic condition, Trypan blue exclusion assay (HL-1 mouse heart cells [7]; normoxic condition, compared with the control): reduced cell death compared with the control | mitochondrial membrane potential (ΔΨm) (LNCAP cells): induce hyperpolarization of ΔΨm | mitochondrial metabolism (LNCAP cells): suppress mitochondrial metabolism
